PMC7423715 (International journal of pharmaceutics, 2020)
Counter-ions that a name gives are not always drawn. Bridge positions count the residues as written; N and C are the ends. Square brackets hold non-standard residues; d marks the D form. Peptide text beside a SMILES is read from it. * marks the point of attachment. X1 = CC[C@H](C)CCCCC(=O)*; Dab = NCC[C@H](N)C(=O)O

System: Calu-3 cell monolayer
Assay: Transepithelial transport across the Calu-3 cell monolayer
Conditions: colistin transport, Calu-3 monolayer, HBSS, 4 hours, LC-MS/MS, n = 4, Fig. 6C

**Q.** For CC[C@H](C)CCCCC(=O)N[C@@H](CCN)C(=O)N[C@H](C(=O)N[C@@H](CCN)C(=O)N[C@H]1CCNC(=O)[C@H]([C@@H](C)O)NC(=O)[C@H](CCN)NC(=O)[C@H](CCN)NC(=O)[C@H](CC(C)C)NC(=O)[C@@H](CC(C)C)NC(=O)[C@H](CCN)NC1=O)[C@@H](C)O [colistin, colistin sulfate] (X1-[Dab]T[Dab][Dab][Dab][dL]L[Dab][Dab]T; lactam 4-C), which “drug retained in the donor compartment” value is on record?
**A.** more than 90%
